Results on 13 compounds are retold here after US10669235B2, “Indole derivatives and their use as protein kinase inhibitors” (RESPIVERT LIMITED, priority 2016, dated 2020).

Where a name gives a salt, the structure may show the parent alone. Read-outs that look alike come from different tables or passages of the source.

A short description of one data set: PAMPA permeability assay. It counts as in vitro ADME. Particulars: pH 7, PAMPA; for Papp at 5 h, 10 µM: pH 7, 10 μM.
The next data set relates to MRC5 cells. Put plainly: Cell viability assay in MRC5 cells (MTT).
Data set [1] addresses T1, PDGFRβ (Homo sapiens (Human), UniProt P09619). Put plainly: PDGFRβ enzyme inhibition (ADP-Glo assay). To be noted: mean, n = 2 (nintedanib n = 34). It counts as biochemical. A general note: ADP-Glo turns the ADP formed in a reaction into a luminescent signal.
For data set [2], the target named is T1, PDGFRβ. Kind of data set: PDGF-BB induced phosphorylation of PDGFRβ in fibroblasts (MRC5, HTRF). It counts as cell-based. Particulars: MRC5 cells, PDGFBB stimulation; read-out: PDGFBB-induced PDGFRβ phosphorylation in MRC5 cells (IC50). (In general: In TR-FRET formats the signal depends on donor and acceptor labels being close together.)
The nature of data set [3]: Pharmacokinetic measurements in rats (i.v., i.t., oral). Format: in vivo. Particulars: rat; for concentration at 0.1 h / concentration at 1.5 h / concentration at 6 h / concentration at 24 h: male, CD, lung; for concentration at 0.1 h: read-out: lung concentration (nM) at time 0.1 h; for concentration at 1.5 h: read-out: lung concentration (nM) at time 1.5 h; for concentration at 6 h: read-out: lung concentration (nM) at time 6 h; for concentration at 24 h: read-out: lung concentration (nM) at time 24 h.

Setting [4] is: i.t. dose 0.1 (nintedanib 0.42).
The mark [5] stands for this setting: i.v. dose 0.1 (nintedanib 0.42).

T1 sequence (P09619 33-1106): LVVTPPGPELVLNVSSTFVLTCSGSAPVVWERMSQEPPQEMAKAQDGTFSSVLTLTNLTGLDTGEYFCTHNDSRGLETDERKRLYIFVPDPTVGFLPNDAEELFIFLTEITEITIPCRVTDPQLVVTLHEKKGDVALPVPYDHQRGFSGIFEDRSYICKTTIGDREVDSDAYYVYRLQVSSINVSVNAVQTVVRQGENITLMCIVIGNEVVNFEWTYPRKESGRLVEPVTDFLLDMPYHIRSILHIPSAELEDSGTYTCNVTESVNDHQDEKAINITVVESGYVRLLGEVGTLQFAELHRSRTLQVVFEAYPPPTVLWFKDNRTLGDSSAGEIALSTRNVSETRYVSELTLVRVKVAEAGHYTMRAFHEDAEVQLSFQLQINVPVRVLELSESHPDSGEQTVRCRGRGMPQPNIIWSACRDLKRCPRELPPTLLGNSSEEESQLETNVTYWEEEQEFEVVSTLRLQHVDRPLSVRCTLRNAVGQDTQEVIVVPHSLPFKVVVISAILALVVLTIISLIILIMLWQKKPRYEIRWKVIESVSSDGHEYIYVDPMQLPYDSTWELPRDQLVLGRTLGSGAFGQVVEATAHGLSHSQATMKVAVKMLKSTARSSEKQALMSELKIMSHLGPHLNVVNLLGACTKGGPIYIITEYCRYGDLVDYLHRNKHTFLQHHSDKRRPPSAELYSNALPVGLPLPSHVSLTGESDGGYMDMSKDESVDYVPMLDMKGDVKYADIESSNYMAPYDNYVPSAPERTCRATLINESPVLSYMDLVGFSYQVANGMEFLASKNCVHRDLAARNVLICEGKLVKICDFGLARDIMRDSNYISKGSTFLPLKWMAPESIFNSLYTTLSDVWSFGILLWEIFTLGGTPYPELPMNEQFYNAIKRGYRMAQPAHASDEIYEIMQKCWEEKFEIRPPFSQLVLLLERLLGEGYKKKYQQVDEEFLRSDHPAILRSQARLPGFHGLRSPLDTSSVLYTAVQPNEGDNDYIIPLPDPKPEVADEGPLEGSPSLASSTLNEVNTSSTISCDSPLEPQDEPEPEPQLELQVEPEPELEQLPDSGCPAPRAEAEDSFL

As a reminder, the Papp is the rate of passage across a membrane or cell layer, normalised by area and donor concentration. A word on the Ki: it is a measure of affinity in units of concentration, obtained from inhibition or displacement. As usually defined, the IC50 is the concentration that gives 50% inhibition. On to `COC(=O)c1cc2c(cc1C)/C(=C(/Nc1ccc(C(=O)NCCCN3CCN(C)CC3)cc1)c1ccccc1)C(=O)N2` [Example 21, (Z)-Methyl-5-methyl-3-(((4-((3-(4-methylpiperazin-1-yl)propyl)carbamoyl)phenyl)amino)(phenyl)methylene)-2-oxoindoline-6-carboxylate, formate], for which, in “PAMPA permeability assay”, the recovery at 5 hr, 10 μM was 76% and the Papp at 5 h, 10 µM is 0.0442 ×10⁻⁶ cm/s. Also, in the data set with MRC5 cells, the “Cell viability at 100 nM (%)” value worked out at 139.6%, the “Cell viability at 300 nM (%)” value amounted to 127.3% and the “Cell viability at 1000 nM (%)” value was 98.8%. The compound also displayed a Ki at PDGFRβ [1] of 6.11 nM. For the same compound, the IC50 on PDGFRβ [2] came out at 35.1 nM.
For `COC(=O)c1cc2c(cc1C)/C(=C(/Nc1ccc(C(=O)NCCN3CCCNC(=O)C3)cc1)c1ccccc1)C(=O)N2` [Example 56, (Z)-Methyl 5-methyl-2-oxo-3-(((4-((2-(3-oxo-1,4-diazepan-1-yl)ethyl)carbamoyl)phenyl)amino)(phenyl)methylene)indoline-6-carboxylate], in the data set with MRC5 cells, the “Cell viability at 100 nM (%)” value amounted to 100.0%, the “Cell viability at 300 nM (%)” value is reported as 104.9% and the “Cell viability at 1000 nM (%)” value is listed as 102.0%. Affinity at PDGFRβ [1] was put at a Ki of 12.6 nM. Also, on PDGFRβ [2], the IC50 was determined as 9.16 nM.
In the case of `COC(=O)c1cc2c(cc1C)/C(=C(/Nc1ccc(C(=O)N3CCC(O)(CN4CCOCC4)CC3)cc1)c1ccccc1)C(=O)N2` [Example 45, (Z)-Methyl-3-(((4-(4-hydroxy-4-(morpholinomethyl)piperidine-1-carbonyl)phenyl)amino)(phenyl)methylene)-5-methyl-2-oxoindoline-6-carboxylate], in the data set “PAMPA permeability assay”, the recovery at 5 hr, 10 μM is 77% and the Papp at 5 h, 10 µM was found to be 0.0893 ×10⁻⁶ cm/s. Also, in the data set on MRC5 cells, the “Cell viability at 100 nM (%)” value came to 80.1%, the “Cell viability at 300 nM (%)” value turned out to be 71.7% and the “Cell viability at 1000 nM (%)” value came out at 62.8%. Besides, the affinity at PDGFRβ [1] corresponds to a Ki of 15.1 nM. Also, at PDGFRβ [2], the IC50 amounted to 2.42 nM.
`COC(=O)c1cc2c(cc1C)/C(=C(/Nc1ccc(C(=O)NCCN3CCNC(=O)C3)c(F)c1)c1ccccc1)C(=O)N2` [Example 55, (Z)-Methyl 3-(((3-fluoro-4-((2-(3-oxopiperazin-1-yl)ethyl)carbamoyl)phenyl)amino)(phenyl)methylene)-5-methyl-2-oxoindoline-6-carboxylate]: in the data set with MRC5 cells, the “Cell viability at 100 nM (%)” value worked out at 79.4%, the “Cell viability at 300 nM (%)” value was 101.5% and the “Cell viability at 1000 nM (%)” value was 101.7%. For the same compound, the Ki at PDGFRβ [1] worked out at 25.1 nM. For the same compound, the IC50 at PDGFRβ [2] worked out at 9.13 nM.
The matching figures for `COC(=O)c1cc2c(cc1C)/C(=C(/Nc1ccc(C(=O)NCCN3CCC(F)(F)CC3)cc1)c1ccccc1)C(=O)N2` [Example 23, (Z)-Methyl 3-(((4-((2-(4,4-difluoropiperidin-1-yl)ethyl)carbamoyl)phenyl)amino)(phenyl)methylene)-5-methyl-2-oxoindoline-6-carboxylate]: 90.7%, 100.5%, 62.1%, 84.6 nM and 22.6 nM.
For the compound `CNC(=O)CN(C)CCNC(=O)c1ccc(N/C(=C2\C(=O)Nc3cc(C(=O)OC)c(C)cc32)c2ccccc2)cc1` [Example 54, (Z)-Methyl 5-methyl-3-(((4-((2-(methyl(2-(methylamino)-2-oxoethyl)amino)ethyl)carbamoyl)phenyl)amino)(phenyl)methylene)-2-oxoindoline-6-carboxylate], in the data set on MRC5 cells, the “Cell viability at 100 nM (%)” value was 110.2%, the “Cell viability at 300 nM (%)” value is listed as 105.5% and the “Cell viability at 1000 nM (%)” value came to 92.4%. The same compound gave a Ki at PDGFRβ [1] of 15.8 nM. Also, at PDGFRβ [2], the half-inhibitory concentration (IC50) amounted to 5.04 nM.
For `COC(=O)c1cc2c(cc1C)/C(=C(/Nc1ccc(C(=O)NCCN3CCC(CO)CC3)cc1)c1ccccc1)C(=O)N2` [Example 42, (Z)-Methyl 3-(((4-((2-(4-(hydroxymethyl)piperidin-1-yl)ethyl)carbamoyl)phenyl)amino)(phenyl)methylene)-5-methyl-2-oxoindoline-6-carboxylate, 0.2 formate] the same measures were 82.5%, 83.4%, 60.7%, 14.4 nM and 14.9 nM.
The matching figures for `COC(=O)c1cc2c(cc1C)/C(=C(/Nc1ccc(C(=O)N3CCCN(CCO)CC3)cc1)c1ccccc1)C(=O)N2` [Example 46, (Z)-Methyl-3-(((4-(4-(2-hydroxyethyl)-1,4-diazepane-1-carbonyl)phenyl)amino)(phenyl)methylene)-5-methyl-2-oxoindoline-6-carboxylate]: 87%, 80.2%, 18.2%, 6.65 nM and 2.49 nM.
As for `COC(=O)c1cc2c(cc1C)/C(=C(/Nc1ccc(C(=O)NCCN3CCN(C)CC3)cc1)c1ccccc1)C(=O)N2` [Example 4, (Z)-Methyl 5-methyl-3-(((4-((2-(4-methylpiperazin-1-yl)ethyl)carbamoyl)phenyl)amino)(phenyl)methylene)-2-oxoindoline-6-carboxylate], in “PAMPA permeability assay”, the recovery at 5 hr, 10 μM was found to be 76% and the Papp at 5 h, 10 µM was 0.0216 ×10⁻⁶ cm/s. The compound also displayed a Ki at PDGFRβ [1] of 11.6 nM. Moreover, the IC50 at PDGFRβ [2] is 14 nM. Further, in data set [3] (iv), the concentration at 0.1 h was 959 nM, the concentration at 1.5 h was 641 nM, the concentration at 6 h came to 156 nM and the concentration at 24 h came out at 88 nM. In addition, in data set [3] (other: intra-tracheal), the concentration at 0.1 h was 3490 nM, the concentration at 1.5 h worked out at 1210 nM, the concentration at 6 h is 475 nM and the concentration at 24 h was 370 nM. Further, in data set [3] (setting [4]), the “BAL % administered dose at time 0.1 h” value is recorded as 3.4%, the “BAL % administered dose at time 1.5 h” value stood at 0.4%, the “BAL % administered dose at time 6 h” value is 0.4% and the “BAL % administered dose at time 24 h” value is reported as 0.3%. In data set [3] (setting [5]), the “BAL % administered dose at time 0.1 h” value came out at 0.07%, the “BAL % administered dose at time 1.5 h” value stood at 0.04%, the “BAL % administered dose at time 6 h” value is recorded as “BQL” and the “BAL % administered dose at time 24 h” value is given as “BQL”.
On to `COC(=O)c1cc2c(cc1C)/C(=C(/Nc1ccc(C(=O)NCCN3CCN(C(C)=O)CC3)cc1)c1ccccc1)C(=O)N2` [Example 24, (Z)-Methyl 3-(((4-((2-(4-acetylpiperazin-1-yl)ethyl)carbamoyl)phenyl)amino)(phenyl)methylene)-5-methyl-2-oxoindoline-6-carboxylate], for which, in the data set on MRC5 cells, the “Cell viability at 100 nM (%)” value is on record as 125.2%, the “Cell viability at 300 nM (%)” value is on record as 74.4% and the “Cell viability at 1000 nM (%)” value was 45.9%. Besides, at PDGFRβ [1], the Ki worked out at 12.7 nM. The IC50 at PDGFRβ [2] came out at 12.3 nM.
The matching figures for `COC(=O)c1cc2c(cc1C)/C(=C(/Nc1ccc(C(=O)N(C)C3CCN(CCO)CC3)cc1)c1ccccc1)C(=O)N2` [Example 41, (Z)-Methyl 3-(((4-((1-(2-hydroxyethyl)piperidin-4-yl)(methyl)carbamoyl)phenyl)amino)(phenyl)methylene)-5-methyl-2-oxoindoline-6-carboxylate, 0.2 formate]: 68.5%, 56.8%, 6.2%, 10.2 nM and 7.4 nM.
The matching figures for `COC(=O)c1cc2c(cc1C)/C(=C(/Nc1ccc(C(=O)N(C)[C@H]3CN(C)C[C@@H]3O)cc1)c1ccccc1)C(=O)N2` [Example 48, (Z)-Methyl 3-(((4-(((3S,4S)-4-hydroxy-1-methylpyrrolidin-3-yl)(methyl)carbamoyl)phenyl)amino)(phenyl)methylene)-5-methyl-2-oxoindoline-6-carboxylate, 0.4 formate]: 84.4%, 74.4%, 14.1%, 9.49 nM and 2.29 nM.
For the compound `COC(=O)c1cc2c(cc1C)/C(=C(/Nc1ccc(C(=O)N3CCC(C(N)=O)(N4CCCCC4)CC3)cc1)c1ccccc1)C(=O)N2` [Example 47, (Z)-Methyl 3-(((4-(4′-carbamoyl-[1,4′-bipiperidine]-1′-carbonyl)phenyl)amino)(phenyl)methylene)-5-methyl-2-oxoindoline-6-carboxylate], in the data set with MRC5 cells, the “Cell viability at 100 nM (%)” value is 143.1%, the “Cell viability at 300 nM (%)” value is 123% and the “Cell viability at 1000 nM (%)” value turned out to be 58.5%. For the same compound, the Ki at PDGFRβ [1] was determined as 98.9 nM. Also, on PDGFRβ [2], the IC50 was 3.67 nM.
